Patent US6498254B1, “Antiretroviral compounds and compositions” (Uniroyal Chemical Company, Inc., priority 2001, dated 2002)
In brackets after ≈: the same amount, converted by molar mass. Read-outs that look alike come from different tables or passages of the source.

Columns and labels:
HIV-1 (IIIB) = test: Inhibition of HIV-1 syncytium formation in CEM cells; format: cell-based; conditions: for EC50: read-out: EC50 (μg/ml) HIV-1; for HIV-1 % Protection: protection of CEM cells against virus-induced cytopathicity at the compound concentration in the previous column
Text: (§1) The cell type used to determine activity of the compounds of the invention herein, i.e., the test compounds, against HIV was human T-lymphoblast (CEM) cells obtained from the American Tissue Cell Culture Collection (Rockville, Md.). HIV-1 (IIIB) was originally obtained from the culture of persistently HIV-1 infected H9 cells and was provided by R. C. Gallo and M. Popovic (National Cancer Institute, National Institutes of Health, Bethesda, Md.). HIV-2 (ROD) was originally obtained from L. M. Montagnier (Pasteur Institute, Paris, France).
(§2) To determine the antiviral activity of the test compounds, CEM cells were suspended at a cell density of approximately 300,000 cells per ml of culture medium and infected with approximately 100 CClD50 (100 CClD50 being the 50% cell culture infective dose) of HIV-1 (IIIB) or HIV-2 (ROD)). Then 100 μl of the infected cell suspensions was added to 200 μl micro titer plate wells containing 100 μl of appropriate serial (5-fold) dilutions of the test compounds. The inhibitory effect of the test compounds on HIV-1 or HIV-2 syncytium formation in CEM cells was examined microscopically on day four post infection. The 50% effective concentration (EC50) was defined as the test compound concentration that inhibits syncytium formation in the HIV-1 or HIV-2 infected cell cultures by 50%.
(§3) In some cases, the compounds had considerable cytotoxicity to CEM cells which made determination of the EC50 difficult. In these cases, the percent protection of the cells against virus-induced cytopathicity by the test compounds at the indicated compound concentration in the previous column is given.

HIV-2 (ROD) = test: Inhibition of HIV-2 syncytium formation in CEM cells; format: cell-based; conditions: for EC50: Human immunodeficiency virus 2, CCRF-CEM, read-out: EC50 (μg/ml) HIV-2; for HIV-2 % Protection: protection of CEM cells against virus-induced cytopathicity at the compound concentration in the previous column
Text: as §1, §2, §3

CMV Davis strain = test: Activity against HCMV: virus-induced cytopathicity in HEL cells; format: cell-based, human cytomegalovirus (HCMV); conditions: for IC50: read-out: Antiviral IC50 (μg/ml) Davis strain; for Antiviral % Inhibition Davis strain: estimate of percent protection of HEL cells at the compound concentration
Method: Confluent HEL cells grown in […] microtiter plates were inoculated with CMV at an input of 100 PFU (plaque forming units) per well. After a one to two hour incubation period, residual virus was removed and the infected cells were further incubated with MEM (Minimal Essential Medium) (supplemented with 2% inactivated Fetal Calf Serum (FCS), […], and 0.3% sodium bicarbonate) containing varying concentrations of the test compounds. Antiviral activity was expressed as EC50 (50% effective concentration), or test compound concentration required to reduce virus-induced cytopathicity after seven days by 50% compared to the untreated control.
In some cases, the compounds had considerable cytotoxicity against HEL cells, which made determination of the EC50's difficult. In these cases, an estimate of the percent protection at the compound concentration indicated in the previous columns is given.

[1] = Human immunodeficiency virus 1, CCRF-CEM, HIV-1 (IIIB) infected CEM cells, syncytium formation, day four post infection
[2] = HIV-2 (ROD) infected CEM cells, syncytium formation, day four post infection
[3] = Human betaherpesvirus 5, 168 h, CMV-infected HEL cells, virus-induced cytopathicity after seven days
[4] = Human immunodeficiency virus 1, IIIB, CCRF-CEM
[5] = Human betaherpesvirus 5, HEL, 168 h
[6] = HIV-1 (IIIB) infected CEM cells, syncytium formation, day four post infection
[7] = CMV-infected HEL cells, virus-induced cytopathicity after seven days

For O=[N+]([O-])c1cc(CS(=O)(=O)c2cccc[n+]2[O-])ccc1Cl [Compound 64, 2-[[(3-nitro-4-chlorophenyl)methyl]sulfonyl]pyridine-N-oxide], the EC50 (HIV-1 (IIIB); [1]) was 1.5 µg/mL (≈ 4.56 µM), the EC50 (HIV-2 (ROD); [2]) was 1.9 µg/mL (≈ 5.78 µM) and the IC50 (CMV Davis strain; [3]) was > 5 µg/mL. For the same compound, the “Antiviral % Inhibition Davis strain” value (CMV Davis strain) was 10.0% and the melting point was 168 to 170 °C.

For [O-][n+]1c(Cl)cccc1SCc1ccccc1 [Compound 149, 6-chloro-(2-benzylthio)pyridine-N-oxide], the EC50 (HIV-1 (IIIB); [4]) was 9 µg/mL (≈ 35.8 µM), the EC50 (HIV-2 (ROD)) was 16 µg/mL (≈ 63.6 µM) and the IC50 (CMV Davis strain; [5]) was 20 µg/mL (≈ 79.4 µM). For the same compound, the melting point was 112 to 115 °C.

With Cc1ccc(C)c(C(Cl)S(=O)(=O)c2ccccn2)c1 (stereo not shown) [Compound 106, 2[(2,5-dimethylphenyl)chloromethylsulfonyl]pyridine] the EC50 (HIV-1 (IIIB); [1]) was 0.9 µg/mL (≈ 3.04 µM), the EC50 (HIV-2 (ROD); [2]) was > 4 µg/mL and the “HIV-2 % Protection” value (HIV-2 (ROD)) was 0.0%. It also gave an IC50 (CMV Davis strain; [3]) of 20 µg/mL (≈ 67.6 µM) and a melting point of 117 to 119 °C.

In the case of Cc1ccc(C)c(C(C)S(=O)(=O)c2cccc(Cl)[n+]2[O-])c1 (stereo not shown) [Compound 76, 2-[1-(2,5-dimethylphenyl)ethylsulfonyl]-6-chloropyridine-N-oxide], the EC50 (HIV-1 (IIIB); [1]) is reported as 0.9 µg/mL (≈ 2.76 µM), the EC50 (HIV-2 (ROD); [2]) is reported as 2.4 µg/mL (≈ 7.37 µM) and the IC50 (CMV Davis strain; [3]) is reported as > 9.1 µg/mL. The melting point was 197 to 200 °C.

In the case of Cc1ccc(C)c(C(C)Sc2cc(C)c3ccccc3n2)c1 (stereo not shown) [Compound 162, 2-[[1-(2,5-dimethylphenyl)ethyl]thio]-4-methylquinoline], the EC50 (HIV-1 (IIIB); [4]) is reported as > 0.8 µg/mL, the “HIV-1 % Protection” value (HIV-1 (IIIB)) is reported as 0.0% and the EC50 (HIV-2 (ROD)) is reported as > 0.16 µg/mL. The “HIV-2 % Protection” value (HIV-2 (ROD)) was 0.0%, the IC50 (CMV Davis strain; [5]) was 1.6 µg/mL (≈ 5.2 µM) and the melting point was 84 to 85 °C.

For Cc1ccc(C)c(C(C)S(=O)(=O)c2cc(C)cc(C)[n+]2[O-])c1 (stereo not shown) [Compound 81, 2-[1-(2,5-dimethylphenyl)ethylsulfonyl]-4,6-dimethylpyridine-N-oxide], the EC50 (HIV-1 (IIIB); [1]) was ≥ 20 µg/mL, the “HIV-1 % Protection” value (HIV-1 (IIIB)) was 37.5% and the EC50 (HIV-2 (ROD); [2]) was > 20 µg/mL. The “HIV-2 % Protection” value (HIV-2 (ROD)) was 0.0%, the IC50 (CMV Davis strain; [3]) was 8.6 µg/mL (≈ 26.9 µM) and the melting point was 201 to 204 °C.

For CCc1cccc2c(C)cc(S(=O)(=O)C(C)c3ccccc3)nc12 (stereo not shown) [Compound 107, 8-ethyl-4-methyl-2-[(1-phenylethyl)sulfonyl]quinoline], the EC50 (HIV-1 (IIIB); [1]) was 0.65 µg/mL (≈ 1.91 µM), the EC50 (HIV-2 (ROD); [2]) was > 100 µg/mL and the IC50 (CMV Davis strain; [3]) was > 20 µg/mL. The “Antiviral % Inhibition Davis strain” value (CMV Davis strain) was 0.0%.

In the case of “1,4[1,2,4,5-tetramethylbenzyl]-bis-(2′-sulfonylpyridine-N-oxide) [Compound 25]”, the “EC50 (μg/ml) HIV-1” value (HIV-1 (IIIB); [6]) is reported as 10.00 µg/mL, the “HIV-2 % Protection” value (HIV-2 (ROD)) is reported as 37.5% and the “Antiviral IC50 (μg/ml) Davis strain” value (CMV Davis strain; [7]) is reported as 16.0 µg/mL.

In the case of Cc1ccc([N+](=O)[O-])c(CS(=O)(=O)c2cccc[n+]2[O-])c1 [Compound 62, 2-[[(2-nitro-5-methylphenyl)methyl]sulfonyl]pyridine-N-oxide], the EC50 (HIV-1 (IIIB); [1]) is reported as 1.9 µg/mL (≈ 6.16 µM), the EC50 (HIV-2 (ROD); [2]) is reported as 5 µg/mL (≈ 16.2 µM) and the IC50 (CMV Davis strain; [3]) is reported as > 5 µg/mL. For the same compound, the “Antiviral % Inhibition Davis strain” value (CMV Davis strain) was 20.0%.

Compound Cc1cc(CS(=O)(=O)c2cccc[n+]2[O-])ccc1[N+](=O)[O-] [Compound 66, 2-[[(3-methyl-4-nitrophenyl)methyl]sulfonyl]pyridine-N-oxide] has an EC50 (HIV-1 (IIIB); [1]) of 3.1 µg/mL (≈ 10.1 µM), an EC50 (HIV-2 (ROD); [2]) of 2.5 µg/mL (≈ 8.11 µM) and an IC50 (CMV Davis strain; [3]) of 5 µg/mL (≈ 16.2 µM).

In the case of Cc1ccc(C)c(CS(=O)(=O)c2cccc(Cl)[n+]2[O-])c1 [Compound 77, 2-(2,5-dimethylphenylmethylsulfonyl)-6-chloropyridine-N-oxide], the EC50 (HIV-1 (IIIB); [1]) is reported as 0.7 µg/mL (≈ 2.25 µM), the EC50 (HIV-2 (ROD); [2]) is reported as > 0.8 µg/mL and the “HIV-2 % Protection” value (HIV-2 (ROD)) is reported as 0.0%. The IC50 (CMV Davis strain; [3]) was 11 µg/mL (≈ 35.3 µM).

For Cc1ccc(C)c(C(C)S(=O)(=O)c2ccccn2)c1 (stereo not shown) [Compound 161, 2-[1-(2,5-dimethylphenyl)ethylsulfonyl]pyridine], the EC50 (HIV-1 (IIIB); [1]) was 9.5 µg/mL (≈ 34.5 µM), the EC50 (HIV-2 (ROD); [2]) was > 100 µg/mL and the “HIV-2 % Protection” value (HIV-2 (ROD)) was 0.0%. For the same compound, the IC50 (CMV Davis strain; [3]) was 38 µg/mL (≈ 138 µM).

For O=S(=O)(Cc1c2ccccc2cc2ccccc12)c1cccc[n+]1[O-] [Compound 51, 2[1-(9-anthryl)methylsulfonyl]pyridine-N-oxide], the EC50 (HIV-1 (IIIB); [1]) was > 0.8 µg/mL, the “HIV-1 % Protection” value (HIV-1 (IIIB)) was 0.0% and the EC50 (HIV-2 (ROD); [2]) was > 0.8 µg/mL. The “HIV-2 % Protection” value (HIV-2 (ROD)) was 0.0% and the IC50 (CMV Davis strain; [3]) was 1.3 µg/mL (≈ 3.72 µM).

In the case of COc1ccc(CSc2cc(C(C)(C)C)cc[n+]2[O-])cc1 [Compound 134, 4-(1,1-dimethylethyl)-2-[(4-methoxyphenyl)methylthio]pyridine-N-oxide], the EC50 (HIV-1 (IIIB); [1]) is reported as > 20 µg/mL, the “HIV-1 % Protection” value (HIV-1 (IIIB)) is reported as 0.0% and the EC50 (HIV-2 (ROD); [2]) is reported as > 100 µg/mL. The “HIV-2 % Protection” value (HIV-2 (ROD)) was 0.0% and the IC50 (CMV Davis strain; [3]) was > 50 µg/mL.

For “2-(2,5-dimethylphenyl)methylsulfinyl)pyridine [Compound 163]”, the “EC50 (μg/ml) HIV-1” value (HIV-1 (IIIB); [6]) was 3.25 µg/mL, the “EC50 (μg/ml) HIV-2” value (HIV-2 (ROD); [2]) was >100 µg/mL and the “HIV-2 % Protection” value (HIV-2 (ROD)) was 0.0%. The “Antiviral IC50 (μg/ml) Davis strain” value (CMV Davis strain; [7]) was >50 µg/mL and the “Antiviral % Inhibition Davis strain” value (CMV Davis strain) was 0.0%.

With O=[N+]([O-])c1cccnc1SCc1ccccc1 [Compound 146, 2-benzylthio-3-nitropyridine] the EC50 (HIV-1 (IIIB); [4]) was 2.3 µg/mL (≈ 9.34 µM), the EC50 (HIV-2 (ROD)) was ≥ 20 µg/mL and the “HIV-2 % Protection” value (HIV-2 (ROD)) was 37.5%. It also gave an IC50 (CMV Davis strain; [5]) of 40 µg/mL (≈ 162 µM).

With Cc1ccc(C)c(CSc2ccccn2)c1.Cl [Compound 157, 2-(2,5-dimethylphenylmethylthio)pyridine hydrochloride] the EC50 (HIV-1 (IIIB); [1]) was 6 µg/mL, the EC50 (HIV-2 (ROD); [2]) was ≥ 20 µg/mL and the “HIV-2 % Protection” value (HIV-2 (ROD)) was 37.5%. For the same compound, the IC50 (CMV Davis strain; [3]) was > 50 µg/mL and the “Antiviral % Inhibition Davis strain” value (CMV Davis strain) was 0.0%.

In the case of [O-][n+]1cc(Cl)ccc1SCc1ccccc1 [Compound 151, 5-chloro-2(benzylthio)pyridine-N-oxide], the EC50 (HIV-1 (IIIB); [4]) is reported as > 20 µg/mL, the “HIV-1 % Protection” value (HIV-1 (IIIB)) is reported as 0.0% and the EC50 (HIV-2 (ROD)) is reported as > 20 µg/mL. The “HIV-2 % Protection” value (HIV-2 (ROD)) was 0.0%, the IC50 (CMV Davis strain; [5]) was > 20 µg/mL and the “Antiviral % Inhibition Davis strain” value (CMV Davis strain) was 20.0%.
